Measurements from US20220119399A1, “COMPOUNDS AND COMPOSITIONS THAT CAUSE MYCN AND/OR CMYC DEGRADATION AND METHODS OF USE THEREOF” (THE TRUSTEES OF COLUMBIA UNIVERSITY IN THE CITY OF NEW YORK, priority 2018, published 2022).

Experiments:
CK2a2 = target: T1, CK2a2 (Homo sapiens, UniProt P19784); test: Cell-free biochemical CK2a2 kinase assay
T1 construct: purchased Reaction Biology Corporation (Malvern, Pa.)
Description: (§1) Cell-free biochemical kinase assays were performed at Reaction Biology Corporation (Malvern, Pa.). In brief, kinase substrates were diluted into reaction buffer containing 20 mM Hepes (pH 7.5), 10 mM MgCl2, 1 mM EGTA, 0.02% Brij35, 0.02 mg/ml BSA, 0.1 mM Na3VO4, 2 mM DTT, 1% DMSO. Purified protein (CK2a1, CK2a2, or mTOR) was added to the substrate solution and gently mixed. Test compounds were diluted from 10 mM DMSO stock solutions into the reaction buffer using an Echo550 acoustic dispenser, followed by incubation at RT for 20 min. 33P-ATP (10 μCi/μL) was added to reaction mixture, following incubation for 2 h at RT. Reactions were then spotted onto P81 ion exchange paper and kinase activity was detected by filter binding method.

SK-N-Be2 cells = assay type: in vitro ADME, human; conditions: human, 20 μM
Description: In brief, SK-N-Be2 cells were seeded at 400 k cells/well in 6 w plates and incubated overnight. The following day, compounds were added to wells at indicated concentrations, with DMSO-only control added to non-treated wells. Following treatment for the indicated time periods, cells were trypsinized, rinsed twice with cold PBS to remove media, pelleted by centrifugation, and frozen at −20° C. To extract compounds, frozen pellets were resuspended in 150 μL of acetonitrile, sonicated for 2′, and centrifuged at 1400×g for 75′ at 4° C. Supernatant was collected and analyzed by LC-MS using a system comprised of a Thermo Scientific Dionex Ultimate 3000 and a Bruker amaZon SL equipped with an electrospray ionization source controlled by a Bruker Hystar 3.2. Compounds were separated by injecting 20 μL of supernatant onto an Agilent Eclipse Plus C18 column (2.1×50 mm, […]) maintained at 20° C., with the flow rate set at 400 μL/min. Initial flow conditions were 60% solvent A (MilliQ H2O, 0.1% acetic acid), and 40% solvent B (HPLC-grade MeOH, 0.1% acetic acid). Solvent B was raised to 60% over 0.25 min and to 70% by 6.75 min. Solvent B was raised to 95% by 7 min and lowered back to 40% by 8 minutes; total run time was 9 min (Bos et al. 2019).

[1] = test system: PLK1, LIN28B, and BMI1 transcripts; test: qPCR of downstream targets of MycN (PLK1, LIN28B, BMI1) in SK-N-Be2 cells; assay type: cell-based, human; conditions: 10 μM, up to 24 h
Description: (§2) Reverse transcription quantitative polymerase chain reaction (RT-qPCR) was used to quantify transcript abundance of genes of interest. Total RNA was isolated from cells using the Qiaquick RNeasy isolation kit following manufacturer's instruction (QIAGEN). RNA quality and abundance was measured using a nanodrop spectrophotometer. A total of 2 μg RNA was used as a template for reverse transcription reactions. cDNA synthesis was performed using TaqMan reverse transcriptase following the manufacturer's instructions, using both oligod(T) and random hexamers as primers for RT reactions. RNAse treatment of cDNA removed any residual RNA in cDNA samples. cDNA samples were diluted 10-fold into nuclease-free dH2O, and used as the template for quantitative PCR reactions were performed in a Viia7 […] thermocycler using SYBR green and gene-specific primers (Table 1). qPCR reactions were performed using the Viia7 Real-Time PCR system (Applied Biosystems), and relative transcript abundance evaluated using the deltaCT method, using the GAPDH housekeeping gene as normalization control.

MYCN transcript = test: RT-qPCR of MYCN transcript in SK-N-Be2 cells; assay type: cell-based, human; conditions: 15 μM, sampled 0, 3, 6, 9, 24 hrs
Description: as §2

[2] = Tolerability in tumor-bearing mice; assay type: in vivo; conditions: 10 mg/kg i.p., 24 hrs
Description: 6-week old male mice were purchased from Charles River Laboratories, and housed in Columbia University's animal control barrier facilities, and mice were allowed one week to acclimate to their new environment. To establish tumor xenografts, 10×10^6 SK-N-Be2 cells were suspended in a 200 μL volume of 50% matrigel slurry. […] Mice were kept on standard chow diet (Purina), and their cage dressing changed twice weekly. Animals were investigated regularly for any sign of discomfort. […] To create the stock solution of isopomiferin, 5 mg of isopomiferin (MicroSource) was dissolved into 50 μL dimethyl sulfoxide (DMSO). To this 450 μL of cyclodextrin solution was added dropwise. Cyclodextrin is dissolved as a 50% w/v solution in 40% EtOH. It is important to add the cyclodextrin slowly and with continual mixing to solubilize the compound. This solution was added to one volume of PBS and filter-sterilized. This solution was then diluted to achieve appropriate concentrations for a 200 μL volume administration at 10 mg/kg to each mouse. The solution was administered to animals via intraperitoneal injection (i.p.). […]
The ability of the compounds to inhibit growth of MYCNA tumor xenografts was evaluated by treating tumor bearing mice with daily i.p. injections of 20 mg/kg isopomiferin or pomiferin. […] MYCN abundance was evaluated mid-experiment, following 14 days of treatment.

pS6K [3] = test: S6K phosphorylation western blot in SK-N-Be2 cells; assay type: cell-based, human; conditions: 10 μM and 20 μM, 24 hours
From the text: (§3) Membranes were blocked using Odyssey Blocking Buffer (LI-COR) for 1 hr at room temperature. […] Primary antibodies used in these studies include: MycN (CST; 1:500 dilution), Actin (SCBT; 1:2000 dil.), cMYC (CST; 1:500 dil.), pAKT (S473; CST; 1:500 dil.), AKT (CST; 1:2000), pP70 (T389; CST; 1:1000) P70 (CST; 1:1000).
(§4) We then tested whether mTORC2 complex was disrupted by isopomiferin treatment. […] to enable translation. We tested whether phosphorylation of S6K was inhibited by isopomiferin by treating SK-N-Be2 cells to 10 μM and 20 μM isopomiferin for 24 hours and blotting for pS6K, using total S6K protein as a loading control. […] We then tested whether this was consistent across cell lines by performing a similar experiment in an NSCLC cell line, A549.

pS6K [4] = test: S6K phosphorylation western blot in A549 cells; assay type: cell-based; conditions: 24 hrs
From the text: as §3, §4

mTOR = mTOR (Homo sapiens, UniProt P42345); test: Cell-free biochemical mTOR kinase assay
Description: as §1

Solubility = assay type: physicochemical
MYC protein = test: Western blot of MYC protein in SCLC lines NCI-H69 and NCI-H209; assay type: cell-based; conditions: NCI-H69 and NCI-H209, 24 h
From the text: as §3

T1 sequence (P19784 whole entry): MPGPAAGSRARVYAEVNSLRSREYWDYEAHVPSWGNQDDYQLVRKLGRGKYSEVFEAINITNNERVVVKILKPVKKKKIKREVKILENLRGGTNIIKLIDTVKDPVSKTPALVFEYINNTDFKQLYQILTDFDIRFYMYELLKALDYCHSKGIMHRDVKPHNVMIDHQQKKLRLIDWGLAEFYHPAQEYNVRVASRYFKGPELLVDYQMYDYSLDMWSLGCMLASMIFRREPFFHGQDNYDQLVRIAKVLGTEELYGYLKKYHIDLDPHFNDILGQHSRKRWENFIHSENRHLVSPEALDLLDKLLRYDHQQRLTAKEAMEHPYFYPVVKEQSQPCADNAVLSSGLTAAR

Row | SMILES | CK2a2 kinase activity (CK2a2) | amount of compound detected in cell sample (SK-N-Be2 cells) [ng] | transcript accumulation of PLK1, LIN28B, and BMI1 [1] | MYCN transcript abundance (RT-qPCR) (MYCN transcript) | toxicity observed in animals [2] | phosphorylation of S6K (P70^S6K) (pS6K [3]) | phosphorylation of S6K (P70^S6K) (pS6K [3]; listed as Isopomiferin) | pS6K (pS6K [4]) | mTOR kinase activity (mTOR) | solubility (Solubility) | MYC protein abundance in SCLC lines (MYC protein)
1 | CC(C)=CCc1c2c(c3occ(-c4ccc(O)c(O)c4)c(=O)c3c1O)C=CC(C)(C)O2 [pomiferin] | inhibiting both isoforms equally in a concentration-dependent manner | ~300 | inhibited the transcript accumulation of three downstream targets of MycN | – | – | – | – | – | – | – | –
2 | CC1(C)C=Cc2c(c3c(c4c(=O)c(-c5ccc(O)c(O)c5)coc24)OC(C)(C)CC3)O1 [isopomiferin] | – | – | – | transcript abundance decreased in a time-dependent manner | No toxicity issues were observed | completely inhibited phosphorylation of S6K protein | inhibited phosphorylation of P70^S6K | suppressed pS6K in A549 cells | did not directly inhibit mTOR kinase activity | not soluble in aqueous buffers | suppressed MYC protein in both SCLC lines
